Like-named read-outs stand apart in the source and are kept apart here. Marks after values point to notes of the source that are not given here.
Assays:
[1] = cited from earlier work; for Total daily oral dose may reach: as dietary supplement (HP-β-cyclodextrin: as oral pharmaceutical); for NOAEL (No Observed Adverse Effect Level): oral intake
[2] = test system: differentiated SH-SY5Y cells; experiment: Neuroprotection against H2O2, preincubation variant; format: cell-based, human
Source text: (§1) Human neuroblastoma cells of the SH-SY5Y lineage were chosen to perform the experiment.
(§2) Based on the literature review and research work, hydrogen peroxide H2O2 was chosen as the neurotoxin.

[3] = test system: differentiated SH-SY5Y neuroblastoma cells; conditions: XTT assay, tested 1-30 μM
Source text: as §1

[4] = test system: APLP2; conditions: 100 mg/kg/day, i.g.
Protocol: (§3) The study was conducted on Wistar rats weighing 220-250 g. All animals were subjected to two weeks of observation prior to the experiment to exclude infection. Rats were housed in standard cages, 5 individuals in each. The animals stayed in a room with a temperature of 22±2° C., air humidity 60-70% and in natural lighting (12/12 in a day/night cycle).
(§4) The Alzheimer's disease model was induced by administering aluminum chloride AICl3 (200 mg/kg body weight, i.g.) to the animals for 120 days. […] Animals were assigned to groups: control group receiving saline (sham operation), group with AlCl3 without treatment and group with AlCl3 receiving betulin (100 mg/kg/day, i.g., within the last 50% of the days of the experiment) and betulin in the complex with cyclodextrin (100 mg/kg/day, i.g., in the last 50% of the days of the experiment).
(§5) On the last day of the experiment, the animals were anaesthetized. Brains were quickly collected and then divided into different areas. The entire procedure was carried out in a cold room (+4° C.) on ice, and the samples were frozen in liquid nitrogen and stored in an ultra-low temperature refrigerator for further analysis.
(§6) In order to measure rat brain damage caused by aluminum chloride, biochemical determinations were carried out on the collected brain tissue fragments.

[5] = test system: Aβ1-42 protein; conditions: 100 mg/kg/day, i.g.
Protocol: as §3, §4, §5, §6

[6] = test system: oxidative stress parameters (GSH, GSSG, G6PD, glutathione reductase, glutathione-S-transferase, GPO); experiment: Glutathione content and antioxidant enzymes activities in brain hemispheres during Al-intoxication; format: in vivo, Wistar rats
Source text: Influence of Betulin on Oxidative Stress Parameters in Rats with Alzheimer-Like Neurodegeneration

[7] = test system: TNFα; conditions: 100 mg/kg/day, i.g.
Protocol: as §3, §4, §5, §6

[8] = test system: differentiated SH-SY5Y neuroblastoma cells; experiment: Early apoptosis of H2O2-treated cells, coincubation variant; format: cell-based, human; conditions: 24 h coincubation with H2O2
Protocol: A coincubation variant was used, i.e. simultaneous administration of betulin or a reference drug and H2O2. H2O2 concentrations were EC50 or EC80 (resulting in a 50% and 80% reduction in cell viability in viability assays). Betulin concentrations were 1 μM and 5 μM, while NAC concentrations were 0.1 mM and 1 mM. The coincubation time of the test substances with H2O2 was 24 h.

[9] = test system: differentiated SH-SY5Y neuroblastoma cells; experiment: Neuroprotection against H2O2, coincubation variant; format: cell-based, human; conditions: for Improvement in cell viability relative to the positive control: coincubation with H2O2; for Increase in viability relative to cells treated with hydrogen peroxide: 24 h co-incubation, H2O2 at EC50
Source text: as §1, §2

[10] = test system: rats with Alzheimer-like neurodegeneration; conditions: Morris water maze, 5th day of testing; AlCl3 rats
Protocol: as §3
(§7) The Alzheimer's disease model was induced by administering aluminum chloride AICl3 (200 mg/kg body weight, i.g.) to the animals for 120 days. […] Animals were assigned to groups: control group receiving saline (sham operation), group with AlCl3 without treatment and group with AlCl3 receiving betulin (100 mg/kg/day, i.g., within the last 50% of the days of the experiment) and betulin in the complex with cyclodextrin (100 mg/kg/day, i.g., in the last 50% of the days of the experiment). Betulin or betulin in a complex with cyclodextrin was administered orally with an intragastric probe in a 2% starch emulsion, reflecting the composition of the finished preparation given in the examples of use.

[11] = test system: differentiated neuroblastoma cells (SH-SY5Y); experiment: Neuroprotection against H2O2, postincubation variant; format: cell-based, human; conditions: 1 h and 3 h H2O2 at EC50, then 24 h post-incubation
Protocol: as §1
Two time variants of incubation with hydrogen peroxide in differentiated neuroblastoma culture, i.e. 1 h and 3 h, were used in post-incubation.

[12] = test system: rats with Alzheimer-like neurodegeneration; experiment: Beam walking test (motor coordination); format: in vivo, Wistar rats; conditions: 5th day of testing, AlCl3 rats
Protocol: as §3, §7

[13] = test system: renal tubular epithelium; conditions: cited from earlier work
[14] = rat hippocampal homogenate, AlCl3 model
[15] = brain hemispheres, Al-intoxication

OC[C@H]1O[C@@H]2O[C@H]3[C@H](O)[C@@H](O)[C@@H](O[C@H]4[C@H](O)[C@@H](O)[C@@H](O[C@H]5[C@H](O)[C@@H](O)[C@@H](O[C@H]6[C@H](O)[C@@H](O)[C@@H](O[C@H]7[C@H](O)[C@@H](O)[C@@H](O[C@H]8[C@H](O)[C@@H](O)[C@@H](O[C@H]1[C@H](O)[C@H]2O)O[C@@H]8CO)O[C@@H]7CO)O[C@@H]6CO)O[C@@H]5CO)O[C@@H]4CO)O[C@@H]3CO [β-cyclodextrin]
Total daily oral dose may reach [1]: 500 mg/day
NOAEL (No Observed Adverse Effect Level) [1]: 10 mg/kg/day

HP-β-cyclodextrin
Total daily oral dose may reach [1]: 8000 mg/day

C=C(C)[C@@H]1CC[C@]2(CO)CC[C@]3(C)[C@H](CC[C@@H]4[C@@]5(C)CC[C@H](O)C(C)(C)[C@@H]5CC[C@]43C)[C@@H]12 [betulin]
Protective effect against H2O2 (in words) ([2]; betulin 1, 2, 5 and 10 μM, toxin at EC50): statistically significant protective effect
Protective effect against H2O2 (in words) ([2]; betulin 15 and 20 μM): no protective effect
Concentration above which a cytotoxic effect is induced (viability below the 70% threshold) [3]: > 20 µM
Effect on APLP2 concentration in hippocampal homogenates (in words) [4]: reduced the concentration of APLP2
APLP2 ([4]; rat brain hippocampus homogenate, AlCl3 model): 588.1 ± 36.4^ab pg/100 mg
Effect on β-amyloid concentration in hippocampal homogenates (in words) [5]: reduced the concentration of β-amyloid
Protein Aβ1-42 [5, 14]: 83.25 ± 6.40^ab pg/100 mg
Effect on GSH, GR and GSTs activity (in words) ([6]; animals with induced AD): significant increase in the activity of all enzymes
Effect on GSSG, G6PD and GPO activity (in words) ([6]; animals with induced AD): significant decrease in the activity of these enzymes
G6PD [6, 15]: 28.61 ± 1.62^b nmol NADPH/min/mg protein
GPO [6, 15]: 33.63 ± 2.09^b umol GSH/min/mg protein
GSH [6, 15]: 26.09 ± 2.19^b nmol/mg protein
GSSG [6, 15]: 0.112 ± 0.002^b nmol/mg protein
Glutathione reductase [6, 15]: 11.59 ± 1.39 nmol NADPH/min/mg protein
Glutathione-S-transferase [6, 15]: 129.90 ± 10.45^b nmol CDNB/min/mg protein
Effect on TNFα concentration in hippocampal homogenates (in words) [7]: reduced the concentration of TNFα
TNF-α [7, 14]: 5.88 ± 0.39 ^b pg/mg
Percentage of apoptotic cells ([8]; betulin 1 μM): 2.7%
Percentage of apoptotic cells ([8]; betulin 5 μM): 2.5%
Improvement in cell viability relative to the positive control ([9]; betulin 1 μM): 27%
Improvement in cell viability relative to the positive control ([9]; betulin 5 μM): 18%
Time spent in a target quadrant [10]: 26 ± 8^ab seconds
Time to reach the platform [10]: 38 ± 7^b seconds
Protective effect after H2O2 treatment (in words) [11]: no increase in viability relative to the positive control
Percent of successful trials [12]: 100^b %
Time to reach the shelter [12]: 18.6 ± 3.6^ab seconds

OC[C@H]1O[C@@H]2O[C@H]3[C@H](O)[C@@H](O)[C@@H](O[C@H]4[C@H](O)[C@@H](O)[C@@H](O[C@H]5[C@H](O)[C@@H](O)[C@@H](O[C@H]6[C@H](O)[C@@H](O)[C@@H](O[C@H]7[C@H](O)[C@@H](O)[C@@H](O[C@H]8[C@H](O)[C@@H](O)[C@@H](O[C@H]9[C@H](O)[C@@H](O)[C@@H](O[C@H]1[C@H](O)[C@H]2O)O[C@@H]9CO)O[C@@H]8CO)O[C@@H]7CO)O[C@@H]6CO)O[C@@H]5CO)O[C@@H]4CO)O[C@@H]3CO [γ-cyclodextrin]
Dose showing only reversible vacuolation in the renal tubular epithelium ([13]; rats, high doses): > 600 mg/kg
Total daily oral dose may reach [1]: 10,000 mg/day
NOAEL (No Observed Adverse Effect Level) [1]: 100 mg/kg/day

OC[C@H]1O[C@@H]2O[C@H]3[C@H](O)[C@@H](O)[C@@H](O[C@H]4[C@H](O)[C@@H](O)[C@@H](O[C@H]5[C@H](O)[C@@H](O)[C@@H](O[C@H]6[C@H](O)[C@@H](O)[C@@H](O[C@H]7[C@H](O)[C@@H](O)[C@@H](O[C@H]1[C@H](O)[C@H]2O)O[C@@H]7CO)O[C@@H]6CO)O[C@@H]5CO)O[C@@H]4CO)O[C@@H]3CO [α-cyclodextrin]
Renal toxicity after parenteral administration (in words) ([13]; rat, in vivo): renal toxicity at relatively low doses
Total daily oral dose may reach [1]: 6000 mg/day

CC(=O)N[C@@H](CS)C(=O)O [NAC, N-acetyl-L-cysteine, reference compound]
Protective effect against H2O2 (in words) ([2]; 24 h preincubation, NAC 2.5 mM to 0.01 mM, H2O2 at EC50): statistically significant (####p<0.001) protective effect on cells (no decrease in viability)
Induction of early apoptosis (percentage of apoptotic cells) ([8]; NAC 0.1 mM): 12.2%
Induction of early apoptosis (percentage of apoptotic cells) ([8]; NAC 1 mM): 12.0%
Increase in viability relative to cells treated with hydrogen peroxide ([9]; NAC 0.01 mM): 12%
Increase in viability relative to cells treated with hydrogen peroxide ([9]; NAC 0.1 mM): 40%
Increase in viability relative to cells treated with hydrogen peroxide ([9]; NAC 1 mM): 54%
Protective effect after H2O2 treatment (in words) [11]: induced a protective effect in a NAC concentration-dependent manner

RM-β-cyclodextrin
Renal toxicity after parenteral administration (in words) ([13]; parenteral administration): renal toxicity at relatively low doses
